According to ChEMBL document CHEMBL1201862, “PubChem BioAssay data set” (2004):
Where “and” joins values, the source holds several entries; their conditions need not be identical. Identical values can stand only once.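 Test compounds were applied to cells in 96-well plates for 48 hours at 5 doses. At the GI50, growth is halved.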 Calls of active or inactive are those of the source. Rule as the data show it: active = GI50 up to about 1.1 µM and inactive = higher.

Legend:
Assay in all cases: NCI anticancer screen, dose series, 48 h
786-0 = tested on: 786-0
A498 = tested on: A498
A549 = tested on: A549
ACHN = tested on: ACHN
DLD-1 = tested on: DLD-1
DMS-273 = tested on: DMS-273
EKVX = tested on: EKVX
HCC 2998 = tested on: HCC 2998
HCT-15 = tested on: HCT-15
HL-60 = tested on: HL-60
HOP-18 = tested on: HOP-18
HOP-62 = tested on: HOP-62
HOP-92 = tested on: HOP-92
IGROV-1 = tested on: IGROV-1
KM-20L2 = tested on: KM-20L2
KM12 = tested on: KM12
LOX IMVI = tested on: LOX IMVI
M19-MEL = tested on: M19-MEL
MOLT-4 = tested on: MOLT-4
NCI-H226 = tested on: NCI-H226
NCI-H23 = tested on: NCI-H23
NCI-H460 = tested on: NCI-H460
NCI/ADR-RES = tested on: NCI/ADR-RES
OVCAR-5 = tested on: OVCAR-5
OVCAR-8 = tested on: OVCAR-8
RXF 393 = tested on: RXF 393
RXF 631 = tested on: RXF 631
SF-268 = tested on: SF-268
SF-295 = tested on: SF-295
SK-MEL-28 = tested on: SK-MEL-28
SK-MEL-2 = tested on: SK-MEL-2
SK-MEL-5 = tested on: SK-MEL-5
SK-OV-3 = tested on: SK-OV-3
SNB-75 = tested on: SNB-75
SW-620 = tested on: SW-620
UACC-257 = tested on: UACC-257
CAKI-1 = tested on: CAKI-1
CCRF-CEM = tested on: CCRF-CEM
COLO 205 = tested on: COLO 205
DMS-114 = tested on: DMS-114
HCT-116 = tested on: HCT-116
HT-29 = tested on: HT-29
K562 = tested on: K562
LXFL 529 = tested on: LXFL 529
M14 = tested on: M14
Malme-3M = tested on: Malme-3M
NCI-H522 = tested on: NCI-H522
OVCAR-3 = tested on: OVCAR-3
OVCAR-4 = tested on: OVCAR-4
RPMI-8226 = tested on: RPMI-8226
SF-539 = tested on: SF-539
SN12C = tested on: SN12C
SNB-19 = tested on: SNB-19
SNB-78 = tested on: SNB-78
SR = tested on: SR
TK-10 = tested on: TK-10
U-251 = tested on: U-251
UACC-62 = tested on: UACC-62
UO-31 = tested on: UO-31
XF498 = tested on: XF498

COC1=C(C)C(=O)C2=C(C1=O)C(CO)N1C(C#N)C3CC4C(C1C2N1CCOC41)N3C (configuration not stated)
GI50 (786-0): 20 nM (active) and 26.8 nM (active)
GI50 (A498): 0.146 µM (active)
GI50 (A549): 354 nM (active) and 321 nM (active)
GI50 (ACHN): 64.1 nM (active) and 38.8 nM (active)
GI50 (DLD-1): 0.00706 µM (active)
GI50 (DMS-273): 0.02 µM (active)
GI50 (EKVX): 314 nM (active) and 305 nM (active)
GI50 (HCC 2998): 72.4 nM (active) and 60.3 nM (active)
GI50 (HCT-15): < 0.01 µM and 0.0144 µM
GI50 (HL-60): 0.0133 µM (active)
GI50 (HOP-18): 0.132 µM (active)
GI50 (HOP-62): 270 nM (active) and 166 nM (active)
GI50 (HOP-92): 24.1 nM (active) and < 16.9 nM (active)
GI50 (IGROV-1): 45.1 nM (active) and 32.4 nM (active)
GI50 (KM-20L2): 0.0617 µM (active)
GI50 (KM12): 58.8 nM (active) and 80.7 nM (active)
GI50 (LOX IMVI): 11.6 nM (active) and < 14.1 nM (active)
GI50 (M19-MEL): 0.0492 µM (active)
GI50 (MOLT-4): 0.0128 µM (active)
GI50 (NCI-H226): 99.3 nM (active) and 57.9 nM (active)
GI50 (NCI-H23): 35.2 nM (active) and 39.1 nM (active)
GI50 (NCI-H460): 90.8 nM (active) and 150 nM (active)
GI50 (NCI/ADR-RES): 22.6 nM (active) and 31.5 nM (active)
GI50 (OVCAR-5): 262 nM (active) and 241 nM (active)
GI50 (OVCAR-8): 30.3 nM (active) and 19.3 nM (active)
GI50 (RXF 393): 20.9 nM (active) and 20.6 nM (active)
GI50 (RXF 631): 0.167 µM (active)
GI50 (SF-268): 78.5 nM (active) and 85.9 nM (active)
GI50 (SF-295): 292 nM (active) and 179 nM (active)
GI50 (SK-MEL-28): 51.8 nM (active) and 52 nM (active)
GI50 (SK-MEL-2): 15.8 nM (active) and 19.4 nM (active)
GI50 (SK-MEL-5): 50.7 nM (active) and 29.9 nM (active)
GI50 (SK-OV-3): 164 nM (active) and 261 nM (active)
GI50 (SNB-75): 20.6 nM (active) and 39.5 nM (active)
GI50 (SW-620): < 14.6 nM (active) and 16.4 nM (active)
GI50 (UACC-257): 26.2 nM (active) and 27.7 nM (active)

N#CCCn1c(S)nnc1CCC(=O)Nc1ccc(Cl)cc1Cl
GI50 (786-0): > 100 µM (inactive)
GI50 (A498): > 100 µM (inactive)
GI50 (A549): 81.3 µM (inactive)
GI50 (ACHN): > 100 µM (inactive)
GI50 (CAKI-1): > 100 µM (inactive)
GI50 (CCRF-CEM): 52.6 µM (inactive)
GI50 (COLO 205): > 100 µM (inactive)
GI50 (DLD-1): > 100 µM (inactive)
GI50 (DMS-114): > 100 µM (inactive)
GI50 (DMS-273): > 100 µM (inactive)
GI50 (HCC 2998): > 100 µM (inactive)
GI50 (HCT-116): > 100 µM (inactive)
GI50 (HCT-15): > 100 µM
GI50 (HL-60): 94.2 µM (inactive)
GI50 (HOP-62): > 100 µM (inactive)
GI50 (HOP-92): > 100 µM (inactive)
GI50 (HT-29): > 100 µM (inactive)
GI50 (IGROV-1): > 100 µM (inactive)
GI50 (K562): 41.4 µM (inactive)
GI50 (KM-20L2): > 100 µM (inactive)
GI50 (KM12): > 100 µM (inactive)
GI50 (LOX IMVI): 71.6 µM (inactive)
GI50 (LXFL 529): > 100 µM (inactive)
GI50 (M14): > 100 µM (inactive)
GI50 (M19-MEL): > 100 µM (inactive)
GI50 (MOLT-4): > 100 µM (inactive)
GI50 (Malme-3M): > 100 µM (inactive)
GI50 (NCI-H226): > 100 µM (inactive)
GI50 (NCI-H23): > 100 µM (inactive)
GI50 (NCI-H460): > 100 µM (inactive)
GI50 (NCI-H522): > 100 µM (inactive)
GI50 (OVCAR-3): > 100 µM (inactive)
GI50 (OVCAR-4): > 100 µM (inactive)
GI50 (OVCAR-5): > 100 µM (inactive)
GI50 (OVCAR-8): > 100 µM (inactive)
GI50 (RPMI-8226): > 100 µM (inactive)
GI50 (RXF 393): > 100 µM (inactive)
GI50 (RXF 631): > 100 µM (inactive)
GI50 (SF-268): > 100 µM (inactive)
GI50 (SF-295): > 100 µM (inactive)
GI50 (SF-539): > 100 µM (inactive)
GI50 (SK-MEL-28): > 100 µM (inactive)
GI50 (SK-MEL-2): > 100 µM (inactive)
GI50 (SK-MEL-5): > 100 µM (inactive)
GI50 (SK-OV-3): > 100 µM (inactive)
GI50 (SN12C): > 100 µM (inactive)
GI50 (SNB-19): > 100 µM (inactive)
GI50 (SNB-75): > 100 µM (inactive)
GI50 (SNB-78): > 100 µM (inactive)
GI50 (SR): 21.7 µM (inactive)
GI50 (SW-620): > 100 µM (inactive)
GI50 (TK-10): > 100 µM (inactive)
GI50 (U-251): > 100 µM (inactive)
GI50 (UACC-257): > 100 µM (inactive)
GI50 (UACC-62): > 100 µM (inactive)
GI50 (UO-31): > 100 µM (inactive)
GI50 (XF498): > 100 µM (inactive)

O=C(c1nc2ccc(Cl)cc2[nH]c1=O)C(O)c1ccco1 (configuration not stated)
GI50 (786-0): > 100 µM (inactive)
GI50 (A549): 50 µM (inactive)
GI50 (ACHN): 38.6 µM (inactive)
GI50 (CAKI-1): 53 µM (inactive)
GI50 (CCRF-CEM): 1.37 µM (inactive)
GI50 (COLO 205): > 100 µM (inactive)
GI50 (DLD-1): > 100 µM (inactive)
GI50 (DMS-114): 4.91 µM (inactive)
GI50 (DMS-273): 35.5 µM (inactive)
GI50 (EKVX): > 100 µM (inactive)
GI50 (HCC 2998): 44 µM (inactive)
GI50 (HCT-116): 46.7 µM (inactive)
GI50 (HCT-15): 15.5 µM
GI50 (HL-60): 6.14 µM (inactive)
GI50 (HOP-18): > 100 µM (inactive)
GI50 (HOP-92): > 100 µM (inactive)
GI50 (HT-29): 83.6 µM (inactive)
GI50 (IGROV-1): 45.9 µM (inactive)
GI50 (K562): 22.1 µM (inactive)
GI50 (KM-20L2): 24.5 µM (inactive)
GI50 (LOX IMVI): 36.6 µM (inactive)
GI50 (LXFL 529): 42.9 µM (inactive)
GI50 (M14): 29.4 µM (inactive)
GI50 (M19-MEL): > 100 µM (inactive)
GI50 (MOLT-4): 8.57 µM (inactive)
GI50 (Malme-3M): > 100 µM (inactive)
GI50 (NCI-H226): > 100 µM (inactive)
GI50 (NCI-H23): > 100 µM (inactive)
GI50 (NCI-H460): 57.9 µM (inactive)
GI50 (NCI-H522): 1.9 µM (inactive)
GI50 (OVCAR-3): 46 µM (inactive)
GI50 (OVCAR-4): > 100 µM (inactive)
GI50 (OVCAR-5): > 100 µM (inactive)
GI50 (RXF 393): > 100 µM (inactive)
GI50 (RXF 631): 6.04 µM (inactive)
GI50 (SF-268): 98.9 µM (inactive)
GI50 (SF-295): > 100 µM (inactive)
GI50 (SF-539): 38.1 µM (inactive)
GI50 (SK-MEL-28): > 100 µM (inactive)
GI50 (SK-MEL-2): 87.1 µM (inactive)
GI50 (SK-MEL-5): 25.5 µM (inactive)
GI50 (SK-OV-3): > 100 µM (inactive)
GI50 (SNB-19): > 100 µM (inactive)
GI50 (SNB-75): > 100 µM (inactive)
GI50 (SW-620): > 100 µM (inactive)
GI50 (TK-10): > 100 µM (inactive)
GI50 (UACC-257): > 100 µM (inactive)
GI50 (UACC-62): 40.4 µM (inactive)
GI50 (UO-31): 42.9 µM (inactive)

Clc1ccc2c(c1)[nH]c1c2nc2ccccn21
GI50 (786-0): 18.9 µM (inactive)
GI50 (A498): 24.2 µM (inactive)
GI50 (A549): 25.1 µM (inactive)
GI50 (HCT-116): 19.3 µM (inactive)
GI50 (HT-29): 15.2 µM (inactive)
GI50 (IGROV-1): 40.8 µM (inactive)
GI50 (KM-20L2): 14.7 µM (inactive)
GI50 (KM12): 16.9 µM (inactive)
GI50 (M14): 20.2 µM (inactive)
GI50 (NCI-H226): 25.4 µM (inactive)
GI50 (NCI-H23): 21.6 µM (inactive)
GI50 (NCI-H522): 19.8 µM (inactive)
GI50 (RPMI-8226): 14.7 µM (inactive)
GI50 (RXF 631): 22.5 µM (inactive)
GI50 (SF-268): 19 µM (inactive)
GI50 (SF-539): 15.9 µM (inactive)
GI50 (SK-MEL-28): 17.4 µM (inactive)
GI50 (SK-OV-3): 27.3 µM (inactive)
GI50 (SNB-19): 19.4 µM (inactive)
GI50 (SNB-78): 23.6 µM (inactive)
GI50 (SR): 17.1 µM (inactive)
GI50 (SW-620): 24.8 µM (inactive)
GI50 (TK-10): 16.8 µM (inactive)
GI50 (UACC-257): 16.7 µM (inactive)
GI50 (UO-31): 18.4 µM (inactive)
